According to PubChem BioAssay AID651592 (Sanford-Burnham Center for Chemical Genomics, 2012):

Tests used:
[1] = inhibitors of NFkB activation in CF airway cells, SAR follow-up, KKLEB cells, panel, IL8 HTRF, NFkB-GFP (AID 651592); details: PAF/TNFa-induced NFkB-GFP / IL8 HTRF, CF-PAF assay;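 note: immortalized cystic fibrosis airway epithelial KKLEB cells with an NF-kB GFP reporter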
[2] = tested on: IL8; experiment: as above; details: PAF/TNFa-induced NFkB-GFP / IL8 HTRF, mean of runs, mean IC50 across panel replicates
[3] = target: Interleukin-8 (Homo sapiens) (UniProt P10145); experiment: as above; details: PAF/TNFa-induced NFkB-GFP / IL8 HTRF
Interleukin-8 (Homo sapiens), sequence (P10145 whole entry, looked up): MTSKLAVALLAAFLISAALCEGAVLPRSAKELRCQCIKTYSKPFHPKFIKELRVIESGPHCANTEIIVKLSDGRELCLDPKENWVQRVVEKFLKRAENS

[4] = mean of runs, mean IC50 across panel replicates

| IC50 [1, 4] | IC50 ([1]; run 1) | IC50 ([1]; run 2) | IC50 ([1]; run 3) | IC50 ([1]; run 4) | IC50 ([1]; run 5) | IC50 ([1]; run 6) | IC50 ([2]; PAF-induced) | IC50 ([2]; TNFa-induced) | IC50 ([3]; IL8, PAF-induced, run 1) | IC50 ([3]; IL8, PAF-induced, run 2) | IC50 ([3]; IL8, PAF-induced, run 3) | IC50 ([3]; IL8, PAF-induced, run 4) | IC50 ([3]; IL8, PAF-induced, run 5) | IC50 ([3]; IL8, PAF-induced, run 6) | IC50 ([3]; IL8, TNFa-induced, run 1) | IC50 ([3]; IL8, TNFa-induced, run 2) | IC50 ([3]; IL8, TNFa-induced, run 3) | IC50 ([3]; IL8, TNFa-induced, run 4) | IC50 ([3]; IL8, TNFa-induced, run 5) | SMILES | other results |
| --- | --- | --- | --- | --- | --- | --- | --- | --- | --- | --- | --- | --- | --- | --- | --- | --- | --- | --- | --- | --- | --- |
| 50.5 µM | 30.5 µM | 31.9 µM | 42.5 µM | > 66 µM | > 66 µM | > 66 µM | > 66 µM | > 66 µM | > 66 µM | > 66 µM | > 66 µM | > 66 µM | > 66 µM | > 66 µM | > 66 µM | > 66 µM | > 66 µM | > 66 µM | > 66 µM | O=C(Nc1ccc(N2CCN(C(=O)c3ccccc3)CC2)cc1)c1ccccc1 | IC50 ([3]; IL8, TNFa-induced, run 6): > 66 µM |
| 4.12 µM | 3.91 µM | 4.12 µM | 4.31 µM | < 10 µM | < 10 µM | < 10 µM | 29.9 µM | 45.5 µM | > 66 µM | > 66 µM | 16.7 µM | < 10 µM | < 10 µM | 10.6 µM | > 66 µM | > 66 µM | > 66 µM | > 66 µM | > 66 µM | O=C(Nc1ccc(N2CCN(C(=O)c3ccccc3Cl)CC2)cc1)c1ccccc1 | IC50 ([3]; IL8, TNFa-induced, run 6): 8.88 µM |
| > 66 µM | > 66 µM | > 66 µM | > 66 µM | > 66 µM | > 66 µM | > 66 µM | > 66 µM | > 66 µM | > 66 µM | > 66 µM | > 66 µM | > 66 µM | > 66 µM | > 66 µM | > 66 µM | > 66 µM | > 66 µM | > 66 µM | > 66 µM | O=C(Nc1ccc(N2CCN(C(=O)c3ccc(F)cc3)CC2)cc1)c1cc(Br)cc(Br)c1 | IC50 ([3]; IL8, TNFa-induced, run 6): > 66 µM |
| 3.75 µM | 2.7 µM | 3.16 µM | 3.43 µM | 2.93 µM | 4.5 µM | 5.77 µM | 9.06 µM | 60.9 µM | 4.34 µM | 7.55 µM | 9.86 µM | 0.898 µM | 7.37 µM | 24.3 µM | > 66 µM | > 66 µM | 35.6 µM | > 66 µM | > 66 µM | O=C(Nc1ccc(N2CCN(C(=O)c3ccccc3)CC2)cc1)c1cncc(Br)c1 | IC50 ([3]; IL8, TNFa-induced, run 6): > 66 µM |
| > 66 µM | > 66 µM | > 66 µM | > 66 µM | > 66 µM | > 66 µM | > 66 µM | > 66 µM | > 66 µM | > 66 µM | > 66 µM | > 66 µM | > 66 µM | > 66 µM | > 66 µM | > 66 µM | > 66 µM | > 66 µM | > 66 µM | > 66 µM | O=C(Nc1ccc(N2CCN(C(=O)c3ccccc3)CC2)cc1)c1cc(Br)cc(Br)c1 | IC50 ([3]; IL8, TNFa-induced, run 6): > 66 µM |
| > 66 µM | > 66 µM | > 66 µM | > 66 µM | > 66 µM | > 66 µM | > 66 µM | > 66 µM | > 66 µM | > 66 µM | > 66 µM | > 66 µM | > 66 µM | > 66 µM | > 66 µM | > 66 µM | > 66 µM | > 66 µM | > 66 µM | > 66 µM | O=C(Nc1ccc(N2CCN(C(=O)c3ccccc3)CC2)cc1)c1ccccn1 | IC50 ([3]; IL8, TNFa-induced, run 6): > 66 µM |
| 25.3 µM | 3.68 µM | 4.18 µM | 4.81 µM | > 66 µM | > 66 µM | 7.26 µM | > 66 µM | > 66 µM | > 66 µM | > 66 µM | > 66 µM | > 66 µM | > 66 µM | > 66 µM | > 66 µM | > 66 µM | > 66 µM | > 66 µM | > 66 µM | O=C(Nc1ccc(N2CCN(C(=O)c3ccccc3Cl)CC2)cc1)c1cccnc1 | IC50 ([3]; IL8, TNFa-induced, run 6): > 66 µM |
| 37.5 µM | 8.36 µM | 9.34 µM | 9.4 µM | > 66 µM | > 66 µM | > 66 µM | > 66 µM | 55.7 µM | > 66 µM | > 66 µM | > 66 µM | > 66 µM | > 66 µM | > 66 µM | > 66 µM | > 66 µM | 4.29 µM | > 66 µM | > 66 µM | O=C(Nc1ccc(N2CCN(C(=O)c3ccccc3F)CC2)cc1)c1ccccc1 | IC50 ([3]; IL8, TNFa-induced, run 6): > 66 µM |
| 39.8 µM | > 66 µM | 16.8 µM | 24.3 µM | > 66 µM | > 66 µM | > 66 µM | 55 µM | > 66 µM | > 66 µM | > 66 µM | > 66 µM | > 66 µM | > 66 µM | > 66 µM | > 66 µM | > 66 µM | > 66 µM | > 66 µM | > 66 µM | O=C(Nc1ccc(N2CCN(C(=O)c3ccccc3Cl)CC2)cc1)c1cccc(Br)c1 | IC50 ([3]; IL8, TNFa-induced, run 6): > 66 µM |
| 3.01 µM | 2.5 µM | 3.02 µM | 3.34 µM | 2.31 µM | 3.07 µM | 3.82 µM | 9.52 µM | 50 µM | 8.79 µM | 9.88 µM | 24.9 µM | 2.03 µM | 3.53 µM | 7.95 µM | > 66 µM | > 66 µM | > 66 µM | > 66 µM | 10.3 µM | O=C(Nc1ccc(N2CCN(C(=O)c3ccc(F)cc3)CC2)cc1)c1cncc(Br)c1 | IC50 ([3]; IL8, TNFa-induced, run 6): 25.4 µM |
| 29 µM | 6.4 µM | 8.28 µM | 8.83 µM | > 66 µM | > 66 µM | 18.3 µM | 61.3 µM | > 66 µM | > 66 µM | > 66 µM | > 66 µM | > 66 µM | > 66 µM | 37.8 µM | > 66 µM | > 66 µM | > 66 µM | > 66 µM | > 66 µM | O=C(Nc1ccc(N2CCN(C(=O)c3ccccc3F)CC2)cc1)c1cccnc1 | IC50 ([3]; IL8, TNFa-induced, run 6): > 66 µM |
| > 66 µM | > 66 µM | > 66 µM | > 66 µM | > 66 µM | > 66 µM | > 66 µM | > 66 µM | > 66 µM | > 66 µM | > 66 µM | > 66 µM | > 66 µM | > 66 µM | > 66 µM | > 66 µM | > 66 µM | > 66 µM | > 66 µM | > 66 µM | O=C(Nc1ccc(N2CCN(C(=O)c3ccc(F)cc3)CC2)cc1)c1ccccn1 | IC50 ([3]; IL8, TNFa-induced, run 6): > 66 µM |
